Reference: US6534499B2, “N-substituted-N′-substituted urea derivatives and the use thereof as TNF-α production inhibitory agents” (Santen Pharmaceutical Co., Ltd., priority 1999, dated 2003)

System: TNF-α produced by the human monocyte strain THP-1
Assay: In vitro test: TNF-α production by THP-1 cells induced by stimulation with LPS
Format: cell-based
Conditions: 2 h; compound 10^−5M; THP-1 cells 10^6 cells/ml; LPS 2 μg/ml; 37° C., two hours; human TNF-α ELISA; read-out: Inhibitory Rate (%) of TNF-α production
Procedure: (§1) Each candidate compound was inspected for the effect of inhibiting TNF-α production induced by the stimulation with lipopolysaccharide (LPS), by an in vitro or in vivo test according to the method proposed by McGeehan et al. (Nature, 1994, 370:558-561).
The test was carried out by, determining the amount of TNF-α produced by the human monocyte strain THP-1 induced by the stimulation with LPS.
The culture medium used in this test was RPMI 1640 culture medium supplemented wiTNFetal calf serum (10%), L-glutamine (2 mM), 2-mercaptoethanol (50 μM), penicillin (50 units/ml) and streptomycin (50 μg/ml).
Regarding the cells, the human monocyte strain THP-1 cells cultivated in the foregoing culture medium were centrifuged at 100 xg for 5 minutes to remove the supernatant and then again suspended in a fresh culture medium prior to the practical use. The LPS used herein was derived from S. Typhimurium and this was dissolved in purified water and then diluted with the culture medium prior to use. Each compound to be tested was dissolved in dimethyl sulfoxide (DMSO) and diluted with the culture medium prior to the practical use.
The cells (10^6 cells/ml) prepared according to the foregoing method were admixed with the LPS (2 μg/ml) and a compound to be tested (10^−5M), the cells were incubated at 37° C. for two hours and then centrifuged at 1000 xg for 5 minutes. The resulting supernatant of the culture medium was inspected for the level of TNF-α using the human TNF-α -specific ELISA kit. In this connection, it was confirmed that the supernatant obtained by cultivating the cells in the culture medium free of any LPS (control) never included any TNF-α.
The rate of the TNF-α production inhibitory effect observed for each candidate compound was determined according to the following equation: […]
Wherein A is the level of TNF-α detected in the supernatant obtained from the culture medium free of any candidate compound and B is the level of TNF-α detected in the supernatant obtained from the culture medium containing a candidate compound.

Point of comparison: `CC(=O)SCCN(CCC1CCCCC1)C(=O)NCCN1CC=CCC1` [Compound 3-13, 1-[2-(Acetylthio)ethyl]-1-(2-cyclohexylethyl)-3-[2-(1,2,5,6-tetrahydropyridin-1-yl)ethyl] urea], inhibition at 10 µM 66%. Against it:
- CC(=O)SCCN(CCc1ccccc1)C(=O)N[C@@H](Cc1ccccc1)CN1CCN(C)CC1 [Compound 3-6, 1-[2-(Acetylthio)ethyl]-3-[(1S)-1-benzyl-2-(4-methylpiperazin-1-yl)ethyl]-1-phenethyl urea] — higher, 94%
- CC(=O)SCCN(CCC1CCCCC1)C(=O)NCCN1CCC(N(C)C)CC1.Cl.Cl [Compound 6-2, 1-[2-(Acetylthio)ethyl]-1-(2-cyclohexylethyl)-3-[2-[4-(dimethylamino)-1-piperidyl]ethyl]urea di-hydrochloride] — lower, 58%

System: TNF-α production induced by LPS (plasma TNF-α)
Assay: In vivo test: plasma TNF-α level in LPS-administered mice
Conditions: female mice; 10 mg/kg subcutaneously immediately after LPS i.p.; plasma one hour after LPS; mouse TNF-α ELISA
Procedure: as §1
Animals used herein were about 7-week-old female mice (5 animals per group) having a body weight of about 20 g. The LPS herein used was derived from Salmonella and it was dissolved in phosphate-buffered physiological saline prior to the practical use (20 μg/ml). Each candidate compound was dissolved or suspended in a 2% dimethyl sulfoxide-containing physiological saline to give a uniform solution or suspension (1 mg/ml).
The LPS solution (10 ml/kg) prepared above was intraperitoneally administered to each test mouse. Immediately after the administration of the LPS solution, the solution of each candidate compound prepared above (10 ml/kg, containing 10 mg/kg of the candidate compound) was subcutaneously injected to each animal. After one hour from the administration of the LPS, each animal was decapitated, the blood was collected from the animal and the blood was centrifuged at 4° C., 3000 rpm for 5 minutes. The resulting plasma was inspected for the level of TNF-α using the mouse TNF-α -specific ELISA kit. In this connection, any TNF-α was not detected in the plasma derived from the animal group free of the LPS-administration (control group).
The rate of TNF-α production-inhibitory effect observed for each candidate compound was determined according to the following equation:
Inhibitory Rate (%)=100×(A−B)/A
Wherein A is the level of TNF-α detected in the plasma derived from the animal group to which any candidate compound was not administered and B is the level of TNF-α detected in the plasma derived from the animal group to which a candidate compound was administered.

Point of comparison: `CC(=O)SCCN(CCC1CCCCC1)C(=O)NCC1CCN(C)CC1.Cl` [Compound 6-3, 1-[2-(Acetylthio)ethyl]-1-(2-cyclohexylethyl)-3-[(1-methyl-4-piperidyl)-methyl]urea hydrochloride], “Inhibitory Rate (%) of TNF-α production” value 50%. Against it:
- CCN1CCCC1CNC(=O)N(CCSC(C)=O)CCC1CCCCC1 (racemic) [Compound 3-17, 1-[2-(Acetylthio)ethyl]-1-(2-cyclohexylethyl)-3-[[(2RS)-1-ethyl-2-pyrrolidinyl]methyl] urea] — higher, 52%
- CC(=O)SCCN(CCC1CCCCC1)C(=O)NCCN1CCCC1 [Compound 3-2, 1-[2-(Acetylthio)ethyl]-1-(2-cyclohexylethyl)-3-[2-(1-pyrrolidinyl)ethyl]-urea] — the same, 50%
- CC(=O)SCCN(CCC1CCCCC1)C(=O)NCCCN1CCCC1 [Compound 3-3, 1-[2-(Acetylthio)ethyl]-1-(2-cyclohexylethyl)-3-[3-(1-pyrrolidinyl)propyl]-urea] — higher, 64%
- CC(=O)SCCN(CCC1CCCCC1)C(=O)NCCCN1CCCCC1 [Compound 3-4, 1-[2-(Acetylthio)ethyl]-1-(2-cyclohexylethyl)-3-[3-(1-piperidyl)propyl]urea] — higher, 51%
- CC(=O)SCCN(CCC1CCCCC1)C(=O)NCCN1CCCCCC1 [Compound 3-9, 1-[2-(Acetylthio)ethyl]-1-(2-cyclohexylethyl)-3-[2-(l-homopiperidyl)ethyl]-urea] — higher, 76%
- CC(=O)SCCN(CCC1CCCCC1)C(=O)NCCN1CCCCC1.Cl [Compound 6-1, 1-[2-(Acetylthio)ethyl]-1-(2-cyclohexylethyl)-3-[2-(1-piperidyl)-ethyl]urea hydrochloride] — higher, 78%
- CSCCN(CCC1CCCCC1)C(=O)NCCN1CCCCC1.Cl [Compound 6-4, 1-(2-Cyclohexylethyl)-1-[2-(methylthio)ethyl]-3-[2-(1-piperidyl)ethyl]urea hydrochloride] — higher, 59%

System: not given
Assay: not given
Conditions: not given

Work on `O=C(NCC1CCN(C(=O)OCc2ccccc2)CC1)N(CCO)CCC1CCCCC1` [Compound 1-18, 1-[[1-(Benzyloxycarbonyl)-4-piperidyl]methyl]-3-(2-cyclohexylethyl)-3-(2-hydroxy-ethyl) urea] yielded a melting point of 94.5 to 95.5 °C.

With `CC(=O)SCCN(CCC1CCCCC1)C(=O)NCCN1CCC(N(C)C)CC1.Cl.Cl` [Compound 6-2, 1-[2-(Acetylthio)ethyl]-1-(2-cyclohexylethyl)-3-[2-[4-(dimethylamino)-1-piperidyl]ethyl]urea di-hydrochloride] the melting point was 170 °C (dec.).
